This note sets out measurements from patent US20240285971A1, “Intratumoral Alpha-Emitter Radiation in Combination with Vasculature Inhibitors” (priority 2021, published 2024).

The subject of this experiment is Glioblastoma Multiforme (GBM) xerographs, U87 cells. Description: DaRT with systemic BEV on U87 GBM xenografts, BEV started five days post seed insertion (FIG. 3). In kind it is in vivo, athymic nude mice. The following applies: U87 intracutaneous flank tumors; single seed in tumor; BEV or IgG 5 mg/kg i.p., 3 doses per week for 3 weeks, from five days post seed insertion; compared with other groups. The procedure:
In the experiment, the efficacy of DaRT with a systemic administration of BEV was tested on Glioblastoma Multiforme (GBM) xerographs. U87 cells were intracutaneously inoculated in a total of 5·10^6 cells per mouse (in a volume of 100 μl) to the flank of athymic nude mice. The tumors were allowed to grow to an average size of 5-6 mm (longest diameter) for 9 days, when either a single DaRT or inert (non-radioactive control) seed was inserted to the middle of each tumor. Five days post seed insertion, each mouse received an i.p (intraperitoneal) administration of either IgG (control antibody) or BEV. This administration included 3 doses per week (5 mg/kg each) for 3 consecutive weeks (a total of 9 doses). The mice were divided to 4 treatment groups as follows: • a. Inert+Control IgG (untreated control); • b. Inert+BEV (Bev as a monotherapy); • c. DaRT+Control IgG (DaRT as a monotherapy); • d. DaRT+BEV (The combined modality)
Tumor volumes were monitored 3 times per week, along with radioactivity measurement using a Geiger counter to confirm that the DaRT seeds are present in the tumor.

Regarding Bevacizumab, the “tumor growth / tumor volume” value was “moderate but significant attenuation in tumor growth”.
